Columns and labels:
[1] = test system: BEAS-2B cells; assay: Toxicity: compound concentration needed to induce greater than 50 percent of cell loss; type: cell-based, human; settings: 18 hours incubation
Method: (§1) Approximately 2300 primary and immortalized human bronchial epithelial cells (BEAS-2B) stably expressing TFEB-EGFP in 25 μL of HITEs media with 10% FBS were dispensed into 384 well plate (Black with glass bottom) and incubated for 8 hours. Compound serial dilution (DMEM low glucose media with 2% FBS, 25 μL volume) were prepared using a robotic liquid hander. Compound solution were then added to the cell plate and incubated for 18 hours. Cells were then fixed with 4% PFA followed by DAPI staining. TFEB localization was imaged on the GFP channel along with the DAPI signal using a Cytation 5 high content imager. Images were processed through Biotek Gen5 software. Specifically, the DAPI signal was used as the primary mask to quantify the nuclear TFEB-GFP signal. Cytosolic TFEB-GFP signal was quantified through expanding the primary mask. The TFEB nuclear/cytosol ratios were calculated from nuclear TFEB-GFP signal/cytosol TFEB-GFP signal, which determined the compound efficacies.
Toxicity was determined by determining the compound concentration needed to induce greater than 50 percent of cell loss. For toxicity, cell loss of greater than 50 percent at a concentration that equals or is greater than 25 μM was represented as cell loss of greater than 50 percent at a concentration less than 25 μM and greater than 1 μM was represented as and cell loss of greater than 50 percent at a concentration that equals or is less than 1 μM was represented as “+++.” The assay results for compounds 1-202, 214-248, 332, 333, and 352-402 are shown in Table A.

[2] = test system: TFEB; assay: High content screen measuring TFEB nuclear accumulation (TFEB nuclear/cytosol ratio) in BEAS-2B cells stably expressing TFEB-EGFP; type: cell-based, human; settings: 18 hours incubation
Method: FIG. 3. High content screen assay (384 well) measuring TFEB nuclear accumulation. Approximately 2500 primary and immortalized human bronchial epithelial cells (BEAS-2B) stably expressing TFEB-EGFP in 25 μL of HITEs media with 10% FBS were dispensed into 384 well plate (Black with glass bottom) and incubated for 8 hours. Compound serial dilution (DMEM low glucose media with 2% FBS, 25 μL volume) were prepared using a robotic liquid hander. Compound solutions were then added to the cell plate and incubated for 18 hours. Cells were then fixed with 4% PFA followed by DAPI staining. TFEB localization was imaged on the GFP channel along with the DAPI signal using a Cytation 5 high content imager. Images were processed through Biotek Gen5 software; specifically, the DAPI signal was used as the primary mask to quantify the nuclear TFEB-GFP signal. The cytosolic TFEB-GFP signal was quantified through expanding the primary mask. The TFEB nuclear/cytosol ratios were calculated from nuclear TFEB-GFP signal/cytosol TFEB-GFP signal, which determined the compound efficacy. […] Compound activities (μM) were determined by the minimal compound concentration needed to increase TFEB nuclear/cytosol ratio by 25%. Activity: “−” equals >25 μM; “+” equals between 25 μM and >10 μM; “++” equals between ≤10 μM and >1 μM; and “+++” equals […]. N=4.
as §1
Compounds efficacies (μM) were determined by the minimal compound concentration needed to increase TFEB nuclear/cytosol ratio by 25%. Activity: “+” equals >25 μM; “++” equals between ≤25 μM and >1 μM; and “+++” equals ≤1 μM.
A high-content imaging screen was conducted using Beas2B cells that stably express GFP-TFEB.

Row | SMILES | toxicity (compound concentration needed to induce greater than 50 percent of cell loss) [1] | efficacy (minimal compound concentration needed to increase TFEB nuclear/cytosol ratio by 25%) [2]
1 | FC(F)c1nc2ccc(Nc3nc(-c4ccncc4)nc4ccccc34)cc2s1 [Compound 92] | + (cell loss of greater than 50 percent at a concentration that equals or is greater than 25 μM was represented as) | ++ (“++” equals between ≤25 μM and >1 μM)
2 | CCc1nc2ccc(Nc3nc(-c4ccncc4)nc4ccc(C)cc34)cc2s1 [Compound 147] | + (cell loss of greater than 50 percent at a concentration that equals or is greater than 25 μM was represented as) | ++ (“++” equals between ≤25 μM and >1 μM)
3 | Cc1nc2cc(Cl)c(Nc3nc(-c4ccncc4)nc4ccncc34)cc2o1 [Compound 144] | + (cell loss of greater than 50 percent at a concentration that equals or is greater than 25 μM was represented as) | + (“+” equals >25 μM)
4 | CCc1ccc(-n2c(=O)c3ccc(C(=O)NCCc4ccccc4)cc3n(Cc3ccccc3C#N)c2=O)cc1 [Compound 231] | + (cell loss of greater than 50 percent at a concentration that equals or is greater than 25 μM was represented as) | ++ (“++” equals between ≤25 μM and >1 μM)
5 | COc1ccc2nc(-c3ccncc3)nc(Nc3ccc4nc(C(C)C)sc4c3)c2c1 [Compound 364] | + (cell loss of greater than 50 percent at a concentration that equals or is greater than 25 μM was represented as) | + (“+” equals >25 μM)
6 | Cc1nc2cc(Cl)c(Nc3nc(-c4ccncc4)nc4ncccc34)cc2o1 [Compound 145] | + (cell loss of greater than 50 percent at a concentration that equals or is greater than 25 μM was represented as) | +++ (“+++” equals ≤1 μM)
7 | Cc1ccc(Nc2nc(-c3ccc(C)cc3)nc3ccccc23)cc1 [Compound 197] | + (cell loss of greater than 50 percent at a concentration that equals or is greater than 25 μM was represented as) | + (“+” equals >25 μM)
8 | CC(C)(C)c1cc2cc(Nc3nc(-c4ccncc4)cc4ncccc34)ccc2[nH]1 [Compound 243] | + (cell loss of greater than 50 percent at a concentration that equals or is greater than 25 μM was represented as) | +++ (“+++” equals ≤1 μM)
9 | COc1ccc2c(Nc3ccc4[nH]ccc4c3)nc(-c3ccncc3)nc2c1 [Compound 114] | ++ (cell loss of greater than 50 percent at a concentration less than 25 μM and greater than 1 μM was represented as) | +++ (“+++” equals ≤1 μM)
10 | COc1cc(F)cc(Nc2nc(-c3ccncc3)nc3ccccc23)c1 [Compound 19] | + (cell loss of greater than 50 percent at a concentration that equals or is greater than 25 μM was represented as) | + (“+” equals >25 μM)
11 | O=c1[nH]c2ccc(Nc3nc(-c4ccncc4)nc4ccccc34)cc2[nH]1 [Compound 39] | + (cell loss of greater than 50 percent at a concentration that equals or is greater than 25 μM was represented as) | + (“+” equals >25 μM)
12 | c1ccc(Nc2nc(-c3ccncc3)nc3ccccc23)cc1 [Compound 179] | + (cell loss of greater than 50 percent at a concentration that equals or is greater than 25 μM was represented as) | ++ (“++” equals between ≤25 μM and >1 μM)

Source: patent publication US12286442B2, “Methods and materials for increasing transcription factor eb polypeptide levels” (University of Pittsburgh—Of the Commonwealth System of …, priority 2019, dated 2025)
